This passage reports Kd results from article PMC8162404, “Proteomimetic surface fragments distinguish targets by function” (Chemical Science, 2020).

pKd: −log10 of the molar value. Like-named read-outs stand apart in the source and are kept apart here.

One experiment addresses T1, S100B (Homo sapiens, UniProt P04271).
T1 construct: made in house; host or cells: Escherichia coli BL21(DE3)
T1 sequence (P04271 1-92): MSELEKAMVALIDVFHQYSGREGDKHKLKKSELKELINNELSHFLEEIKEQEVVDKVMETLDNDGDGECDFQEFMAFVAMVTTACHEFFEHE
Nature of the experiment: Pull-down assay with immobilized protein and LSM libraries. The format is binding. The conditions noted are these: 1:1 binding assumed, read-out: Surface mapping KD (apparent). The gist of the method:
(§1)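 Buffers were HEPES pH 7.4 with 150 mM NaCl, plus 1 mM TCEP and 1 mM CaCl2 (50 mM HEPES) for S100A4 and S100B, 1 mM TCEP for Gal-1, and no additive for RecQ-WH. Immobilized protein at 64 µM was equilibrated 30 min with the LSM sublibrary, and unbound probes were measured by LC-MS.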

A further experiment concerns the target T2, RecQ-WH (Escherichia coli, UniProt P15043).
T2 construct: coding for residues 408– 523 of E. coli RecQ; made in house; host or cells: E. coli BL21(DE3)
The experiment is described as above. Details: species or system E. coli. The conditions noted are these: 1:1 binding assumed, read-out: Surface mapping KD (apparent). Here is the method:
Pull-down assays with immobilized test proteins and foldameric LSM libraries were carried out. Proteins were equilibrated with LSM probes, and equilibrium bound fractions (FB) were determined from the unbound fractions measured by HPLC-MS methods. Hits were corrected with background binding of the resin. The protocol allowed all binding events to equilibrate irrespective of affinity, specificity, and binding kinetics. This was essential to judge overall druggability and promiscuity. Importantly, the concentration of protein and the total concentration of foldameric LSMs were equimolar, which minimized competition between the probes. This experimental setup approximated independent binding of individual library members. Results were visualized as heat maps of dissociation constants (Fig. 3).
Pull-down assay and data analysis
Pull-down assay. LSM sublibraries were screened separately as previously described.(2) Experiments were performed in the following buffers: (i) 20 mM pH 7.4 HEPES, 150 mM NaCl, 5 mM CaCl2 for CaM; (ii) 50 mM pH 7.4 HEPES, 150 mM NaCl, 1 mM TCEP, 1 mM CaCl2 for S100 proteins; (iii) 20 mM pH 7.4 HEPES, 150 mM NaCl, 1 mM TCEP for Gal-1 and (iv) 20 mM pH 7.4 HEPES, 150 mM NaCl for RecQ-WH. Assays were performed in paper filter spin cups (Thermo Scientific) with sample volumes of 100 µl. Hexahistidine-tagged proteins were immobilized on previously washed Co-NTA resin (TALON, Takara Bio USA, Inc., Mountain View, CA) in 64 µM final concentration. LSM sublibrary was added, in which each of the 64 library members were used at a concentration of 1 µM. Samples were incubated at room temperature for 30 min with shaking at 100 rpm. Then, samples were centrifuged at 1000 rpm for 2 min and washed with 100 µl pull-down buffer to remove unbound compounds.
The control experiments were performed using the same compounds and the resin but without the immobilized protein. In case of competitive assays, competitor peptides were added to LSM sublibrary samples in 200 µM final concentration. In the case of Gal-1, lactose (competitor) was used in a concentration of 10 mM. Experiments were performed at least twice. Mean […]
LC-MS methods and parameters. HPLC/ESI-MS analysis was used to characterize the samples from the pull-down assay. LC-MS analysis was performed with a Thermo Scientific Dionex UltiMate 3000 HPLC system interfaced to an LTQ ion trap mass spectrometer (Thermo Electron Corp., San Jose, CA, USA). Samples were injected onto an Aeris Widepore XB-C18 (250 x 4.6 mm) analytical HPLC column using gradient elution 5-80 % solution B during 25 minutes. For pull-down samples, eluent composition was 0.1% acetic acid in distilled water (Solution A) and 0.1% acetic acid in acetonitrile (solution B). Mass spectra were acquired in full scan mode from 200 to 2000 m/z range. For overlapping peaks, selective reaction monitoring (SRM) was […]
MS data analysis. Thermo Xcalibur 2.2 software was used for peak identification and integration. The majority of the foldameric fragments could be resolved independently via HPLC-MS/MS measurements based on molecular weight, MS fragmentation pattern and retention time. Peaks of some foldamers with β3-hIle or β3-hLeu in position R2 could not be resolved, these were integrated and averaged. In the processing method, each sample component was associated to a chromatographic peak based on previously identified mass (m/z) and retention time (ref (2) and Table S7-10). Using ICIS peak detection algorithm, the general detection and integration criteria were: smoothing points: 5, baseline window: 80, area noise factor: 5, peak noise factor: 10. Using these processing setups, all raw data files were reprocessed together and analyzed. Errors in peak identification during the automatic processing were corrected manually.
Calculation of the discussed parameters
1. Bound fractions (FB.) were calculated from the HPLC-MS intensity loss of the LSM probes compared to the control where no protein was immobilized to the resin: […]

For experiment [1], the target named is T3, Gal-1 (Homo sapiens, UniProt P09382).
T3 construct: made in house; host or cells: E. coli BL21(DE3)
T3 sequence (P09382 whole entry): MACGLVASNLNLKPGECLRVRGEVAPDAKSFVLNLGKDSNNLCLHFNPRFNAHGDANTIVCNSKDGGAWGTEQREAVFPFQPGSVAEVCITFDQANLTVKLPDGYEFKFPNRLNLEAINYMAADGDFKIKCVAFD
Kind of experiment: Competition pull-down with lactose. The format is binding. To be noted: H14 library; lactose 10 mM; read-out: Surface mapping KD (apparent), competition. The gist of the method:
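His6-tagged proteins immobilized on Co-NTA resin at 64 µM final with 64-member LSM foldamer sublibraries (1 M each, as printed) in pH 7.4 HEPES/NaCl buffers (Ca2+/TCEP per target), 30 min RT; competitor peptides 200 µM final, lactose 10 mM for Gal-1. Bound fractions from LC-MS loss vs protein-free resin; KD assuming 1:1 binding.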

Experiment [2] deals with T3, Gal-1. Nature of the experiment: Pull-down assay with immobilized protein and LSM libraries. The format is binding. The conditions noted are these: H12 library; 1:1 binding assumed; read-out: Surface mapping KD (apparent). The gist of the method: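 His-tagged protein immobilized on Co-NTA resin (64 µM) in 20 mM HEPES pH 7.4, 150 mM NaCl, equilibrated 30 min at room temperature with foldamer LSM sublibraries at equimolar total concentration. Unbound fractions quantified by HPLC-MS versus protein-free resin control; apparent KD assumes 1:1 binding.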

Another experiment has as its target T4, CaM (Bos taurus, UniProt P62157).
T4 construct: made in house; host or cells: E. coli BL21 (DE3)
The description is as above. The format is binding, bovine. To be noted: 1:2 stoichiometry assumed, read-out: Surface mapping KD (apparent). The gist of the method:
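His-tagged protein immobilized on Co-NTA resin, equilibrated 30 min at room temperature with LSM sublibraries (64 members, […]), equimolar protein to total probe. CaM buffer: 20 mM HEPES pH 7.4, 150 mM NaCl, 5 mM CaCl2. Bound fractions from HPLC-MS loss of unbound probe versus protein-free resin control; Kd derived.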

The target of another experiment is T5, S100A4 (Homo sapiens, UniProt P26447).
T5 construct: made in house; host or cells: Escherichia coli BL21(DE3)
T5 sequence (P26447 whole entry): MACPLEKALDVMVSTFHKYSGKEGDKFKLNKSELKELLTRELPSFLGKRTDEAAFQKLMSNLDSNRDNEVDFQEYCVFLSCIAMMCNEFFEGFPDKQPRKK
Described as above. Format: binding. The conditions noted are these: 1:1 binding assumed, read-out: Surface mapping KD (apparent). The gist of the method: as §1

T2 sequence (P15043 408-523): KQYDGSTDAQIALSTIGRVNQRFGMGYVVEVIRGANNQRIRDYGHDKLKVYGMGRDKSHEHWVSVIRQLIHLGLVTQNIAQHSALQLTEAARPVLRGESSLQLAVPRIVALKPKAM

By pKd is commonly meant the Kd on a negative log10 scale, so that one unit is a factor of ten. As for `NC(=O)[C@H]1CCCC[C@@H]1NC(=O)C[C@H](Cc1c[nH]c2ccccc12)NC(=O)[C@H]1CCCC[C@@H]1NC(=O)[C@H]1CCCC[C@@H]1NC(=O)C[C@H](CCC(=O)O)NC(=O)[C@H]1CCCC[C@@H]1N` [H14 EW], the pKd is 3.52 on S100B (H14 library), 3.67 at RecQ-WH (H14 library) and 3.34 on Gal-1 [1].
On the same counts, the results for `NCCCC[C@@H](CC(=O)N[C@H]1CCCC[C@@H]1C(N)=O)NC(=O)[C@H]1CCCC[C@@H]1NC(=O)[C@H]1CCCC[C@@H]1NC(=O)C[C@H](CC(=O)O)NC(=O)[C@H]1CCCC[C@@H]1N` [H14 DK] are 3.84, 3.50 and 3.39.
With `N=C(N)NCCC[C@@H](CC(=O)N[C@H]1CCC[C@@H]1C(=O)N[C@H]1CCC[C@@H]1C(N)=O)NC(=O)[C@H]1CCC[C@@H]1NC(=O)[C@H]1CCC[C@@H]1NC(=O)C[C@H](Cc1ccccc1)NC(=O)[C@H]1CCC[C@@H]1NC(=O)[C@H]1CCC[C@@H]1N` [H12 FR], the pKd at Gal-1 [2] is 3.85; on S100B (H12 library) it was 4.55; on RecQ-WH (H12 library), 3.41; on CaM (H12 library), 3.90.
In the case of `CC[C@H](C)[C@@H](CC(=O)N[C@H]1CCCC[C@@H]1C(N)=O)NC(=O)[C@H]1CCCC[C@@H]1NC(=O)[C@H]1CCCC[C@@H]1NC(=O)C[C@H](CCCNC(=N)N)NC(=O)[C@H]1CCCC[C@@H]1N` [H14 RI], the pKd at S100A4 (H14 library) is 4.29; on S100B (H14 library) it was 4.51; on RecQ-WH (H14 library), 3.63; on CaM (H14 library), 5.00.
Regarding `NCCCC[C@@H](CC(=O)N[C@H]1CCC[C@@H]1C(=O)N[C@H]1CCC[C@@H]1C(N)=O)NC(=O)[C@H]1CCC[C@@H]1NC(=O)[C@H]1CCC[C@@H]1NC(=O)C[C@H](Cc1ccccc1)NC(=O)[C@H]1CCC[C@@H]1NC(=O)[C@H]1CCC[C@@H]1N` [H12 FK], the pKd at Gal-1 [2] is 3.61; at S100B (H12 library), 4.43; at RecQ-WH (H12 library), 3.47; at CaM (H12 library) it was 3.35.
With `NCCCC[C@@H](CC(=O)N[C@H]1CCC[C@@H]1C(=O)N[C@H]1CCC[C@@H]1C(N)=O)NC(=O)[C@H]1CCC[C@@H]1NC(=O)[C@H]1CCC[C@@H]1NC(=O)C[C@H](Cc1ccc(O)cc1)NC(=O)[C@H]1CCC[C@@H]1NC(=O)[C@H]1CCC[C@@H]1N` [H12 YK], the negative logarithm of the Kd (pKd) was 3.43 at Gal-1 [2], 4.07 on S100B (H12 library), 3.55 at RecQ-WH (H12 library) and 4.38 on CaM (H12 library).
Turning to `CSCC[C@@H](CC(=O)N[C@H]1CCCC[C@@H]1C(N)=O)NC(=O)[C@H]1CCCC[C@@H]1NC(=O)[C@H]1CCCC[C@@H]1NC(=O)C[C@H](CCCNC(=N)N)NC(=O)[C@H]1CCCC[C@@H]1N` [H14 RM], the negative logarithm of the Kd (pKd) was 4.03 at S100A4 (H14 library), 4.10 on S100B (H14 library), 3.53 at RecQ-WH (H14 library) and 4.52 on CaM (H14 library).
As to `NC(=O)[C@H]1CCCC[C@@H]1NC(=O)C[C@H](CCC(=O)O)NC(=O)[C@H]1CCCC[C@@H]1NC(=O)[C@H]1CCCC[C@@H]1NC(=O)C[C@H](Cc1c[nH]c2ccccc12)NC(=O)[C@H]1CCCC[C@@H]1N` [H14 WE], the pKd at S100A4 (H14 library) was 3.37; on RecQ-WH (H14 library), 3.86; at CaM (H14 library), 3.72.
For `N=C(N)NCCC[C@@H](CC(=O)N[C@H]1CCC[C@@H]1C(=O)N[C@H]1CCC[C@@H]1C(N)=O)NC(=O)[C@H]1CCC[C@@H]1NC(=O)[C@H]1CCC[C@@H]1NC(=O)C[C@H](Cc1c[nH]c2ccccc12)NC(=O)[C@H]1CCC[C@@H]1NC(=O)[C@H]1CCC[C@@H]1N` [H12 WR], the pKd on S100A4 (H12 library) is 3.49; at S100B (H12 library), 4.82; on RecQ-WH (H12 library), 3.69; at CaM (H12 library), 3.65.
With `NCCCC[C@@H](CC(=O)N[C@H]1CCCC[C@@H]1C(=O)N[C@H]1CCCC[C@@H]1C(=O)N[C@H](CC(=O)N[C@H]1CCCC[C@@H]1C(N)=O)Cc1ccc(O)cc1)NC(=O)[C@H]1CCCC[C@@H]1N` [H14 KY], the negative logarithm of the Kd (pKd) at S100B (H14 library) is 4.20; at RecQ-WH (H14 library) it was 3.39; at CaM (H14 library), 4.44.
Turning to `N=C(N)NCCC[C@@H](CC(=O)N[C@H]1CCCC[C@@H]1C(=O)N[C@H]1CCCC[C@@H]1C(=O)N[C@H](CC(=O)N[C@H]1CCCC[C@@H]1C(N)=O)Cc1c[nH]c2ccccc12)NC(=O)[C@H]1CCCC[C@@H]1N` [H14 RW], the pKd on S100A4 (H14 library) is 4.25; at S100B (H14 library) it was 4.89; on RecQ-WH (H14 library), 3.70; on CaM (H14 library), 6.22.
`CC(C)C[C@@H](CC(=O)N[C@H]1CCCC[C@@H]1C(N)=O)NC(=O)[C@H]1CCCC[C@@H]1NC(=O)[C@H]1CCCC[C@@H]1NC(=O)C[C@H](CC(=O)O)NC(=O)[C@H]1CCCC[C@@H]1N` [H14 DL]: the negative-log Kd (pKd) on RecQ-WH (H14 library) was 3.37; on Gal-1 [1], 3.39.
Consider `NCCCC[C@@H](CC(=O)N[C@H]1CCCC[C@@H]1C(N)=O)NC(=O)[C@H]1CCCC[C@@H]1NC(=O)[C@H]1CCCC[C@@H]1NC(=O)C[C@H](Cc1ccc(O)cc1)NC(=O)[C@H]1CCCC[C@@H]1N` [H14 YK], for which the negative-log Kd (pKd) at S100A4 (H14 library) was 3.84; on S100B (H14 library), 4.05; on RecQ-WH (H14 library) it was 3.39; at CaM (H14 library) it was 4.77.
In the same order, the values of `CC(C)C[C@@H](CC(=O)N[C@H]1CCCC[C@@H]1C(N)=O)NC(=O)[C@H]1CCCC[C@@H]1NC(=O)[C@H]1CCCC[C@@H]1NC(=O)C[C@H](CCCNC(=N)N)NC(=O)[C@H]1CCCC[C@@H]1N` [H14 RL] are 4.29, 4.51, 3.63 and 5.00.
`CC[C@H](C)[C@@H](CC(=O)N[C@H]1CCCC[C@@H]1C(N)=O)NC(=O)[C@H]1CCCC[C@@H]1NC(=O)[C@H]1CCCC[C@@H]1NC(=O)C[C@H](CC(=O)O)NC(=O)[C@H]1CCCC[C@@H]1N` [H14 DI]: the figures for the pKd on RecQ-WH (H14 library) and at Gal-1 [1] were 3.37 and 3.39, respectively.
